The values below come from US9968603B2, “Systems for sustained intraocular delivery of low solubility compounds from a port delivery system implant” (ForSight Vision4, Inc., priority 2013, dated 2018).

A short description of data set [1]: Formulation (solubility) screening with cyclodextrins, concentrations achieved. It counts as physicochemical. Conditions: for SBE-β-CD [CAPTISOL] Formulations (CD Excess), concentration: CD excess: Pazopanib 20 (5x), 50 (2.5x), 80 (2.5x), Sunitinib 2.5x, 4x, Axitinib 6x, Linifanib 8x, Motesanib 2x; for Expected Concentration Achieved: achieved vs expected formulation concentration. The method, then:
For example, solid therapeutic agents are mixed in an aqueous solution with cyclodextrin, buffering agent, and/or other formulation agents of the current invention. The pH of the resulting mixture is adjusted with a base, for example, NaOH, or an acid, for example, citric acid. The mixture is then filtered, and the resulting filtered solution is used to fill the PDS.
A solubility screening of the therapeutic agent of the invention was carried out during the pre-formulation stage. For example, the solubility of the therapeutic agents in acids, cyclodextrin (CD) (e.g., SBEβCD (CAPTISOL®), HPβCD, HPγCD), hydrophilic stabilizing agents (e.g., PVP), and buffering agents (e.g., citric acid, histidine) were explored. Systematic formulation screening may include determination of CD:therapeutic agent ratio, pH, therapeutic agent concentration, and agents.
For example, in the formulation process with complexing agents such as cyclodextrins, a vial of solid therapeutic agent was mixed with a vial containing a solution of CD, acid, and agents in water. The pH of the resulting mixture was adjusted by NaOH. The mixture was then be filtered, and the resulting filtered solution was used to fill the PDS device or used to determine its stability.

The nature of data set [2]: Aqueous solubility. Format: physicochemical.
Data set [3] is described as follows: Viscosity and water content of cyclodextrin formulations. Format: physicochemical. As to conditions: 80 mg/mL Pazopanib.
The nature of data set [4]: Diffusion coefficient from Release Rate Index and single exponential model, compared with Stokes-Einstein prediction. Conditions: 21 mg/mL Sunitinib, 2.5:1 molar ratio HPβCD.
Procedure: The measured diffusion coefficient was compared to the diffusion coefficient predicted (using Stokes-Einstein equation to correct for MW (via volume of diffusing species) and temperature (via temperature dependence of the viscosity of water)) for a molecule of that molecular weight.
The rate was assessed by using the measured Release Rate Index (RRI) and volume for a particular device and using the single exponential diffusion model to determine a measured diffusion coefficient for a particular formulation and device combination. The measured diffusion coefficient was compared to the diffusion coefficient predicted (using Stokes-Einstein equation to correct for MW (via volume of diffusing species) and temperature (via temperature dependence of the viscosity of water)) for a molecule of that molecular weight.
Data set [5] is described as follows: Formulations with amphiphilic agents and non-aqueous solvents (no complexing agent), concentration dissolved. It counts as physicochemical. As to conditions: neat PEG 300.

Structures are written as SMILES. Converted amounts (≈) assume the structure as drawn. Structures can show the parent of a compound that is named as a salt. Where two headings read alike, the source gives them in different places. Some results are limits rather than exact numbers.

As to `CC1(C)CNc2cc(NC(=O)c3cccnc3NCc3ccncc3)ccc21` [Motesanib, N-(2,3-Dihydro-3,3-dimethyl-1H-indol-6-yl)-2-[(4-pyridinylmethyl)amino]-3-pyridinecarboxamide], in data set [1], the “SBE-β-CD [CAPTISOL] Formulations (CD Excess), concentration” value is given as 30 mg/mL and the “Expected Concentration Achieved” value was “No”.
The term solubility denotes the dissolved amount per volume that the medium holds. `CNC(=O)c1ccccc1Sc1ccc2c(/C=C/c3ccccn3)n[nH]c2c1` [Axitinib, N-Methyl-2-((3-((1E)-2-(pyridin-2-yl)ethenyl)-1H-indazol-6-yl)sulfanyl)benzamide]: the solubility in data set [2] (PBS, aqueous buffer, read-out: solubility in PBS) is 0.3 µg/mL (≈ 0.776 µM).
Take `Cc1ccc(Nc2nccc(N(C)c3ccc4c(C)n(C)nc4c3)n2)cc1S(N)(=O)=O` [Pazopanib, 5-[[4-[(2,3-dimethyl-2H-indazol-6-yl)methylamino]-2-pyrimidinyl]amino]-2-methylbenzenesulfonamide monohydrochloride]: the viscosity result in data set [3] (2.2:1 molar ratio CAPTISOL) is listed as “at least 5 centipoise”. In addition, in data set [3] (5:1 CAPTISOL), the water content result is reported as “approximately 0.5 g/mL”. For the same compound, the solubility in data set [2] (aqueous solution with 0.1% polysorbate-20, aqueous with cosolvent or surfactant or cyclodextrin) came out at 0.1 µg/mL. The “solubility in phosphate buffered saline” value in data set [2] (neutral pH) is given as “insoluble”.
Consider `CCN(CC)CCNC(=O)c1c(C)[nH]c(/C=C2\C(=O)Nc3ccc(F)cc32)c1C.O=C(O)CC(O)C(=O)O` [Sunitinib, Butanedioic acid, hydroxy-, (2S)-, compound with N-[2-(diethylamino)ethyl]-5-[(Z)-(5-fluoro-1,2-dihydro-2-oxo-3H-indol-3-ylidine)methyl]-2,4-dimethyl-1H-pyrrole-3-carboxamide (1:1)], for which the solubility in data set [2] (aqueous solution, pH 4.1, aqueous buffer, read-out: solubility) is above 25000 µg/mL. In addition, the solubility in data set [2] (aqueous solution, pH 7.4, aqueous buffer, read-out: solubility) was found to be 10 µg/mL. In data set [4], the measured diffusion coefficient is given as 3.3e-7 cm^2/s and the “times lower than the predicted single molecule diffusion coefficient” value is recorded as 20 times.
`Cc1ccc(F)c(NC(=O)Nc2ccc(-c3cccc4[nH]nc(N)c34)cc2)c1` [Linifanib, N-[4-(3-Amino-1H-indazol-4-yl)phenyl]-N′-(2-fluoro-5-methylphenyl)urea]: in data set [1], the “SBE-β-CD [CAPTISOL] Formulations (CD Excess), concentration” value was 6 mg/mL and the “Expected Concentration Achieved” value is recorded as “No”. Moreover, in data set [5], the concentration formulated was 20000 µg/mL.
